Molecules are shown by their SMILES. In brackets after ≈: the same amount, converted by molar mass.

This is an account of results in patent US6492416B1, “4,5-diaryl-3(2H)-furanone derivatives as cyclooxygenase-2 inhibitors” (Pacific Corporation, priority 1999, dated 2002).

The target of one series is T1, COX-2 (Mus musculus, UniProt Q05769).
T1 sequence (Q05769 18-604): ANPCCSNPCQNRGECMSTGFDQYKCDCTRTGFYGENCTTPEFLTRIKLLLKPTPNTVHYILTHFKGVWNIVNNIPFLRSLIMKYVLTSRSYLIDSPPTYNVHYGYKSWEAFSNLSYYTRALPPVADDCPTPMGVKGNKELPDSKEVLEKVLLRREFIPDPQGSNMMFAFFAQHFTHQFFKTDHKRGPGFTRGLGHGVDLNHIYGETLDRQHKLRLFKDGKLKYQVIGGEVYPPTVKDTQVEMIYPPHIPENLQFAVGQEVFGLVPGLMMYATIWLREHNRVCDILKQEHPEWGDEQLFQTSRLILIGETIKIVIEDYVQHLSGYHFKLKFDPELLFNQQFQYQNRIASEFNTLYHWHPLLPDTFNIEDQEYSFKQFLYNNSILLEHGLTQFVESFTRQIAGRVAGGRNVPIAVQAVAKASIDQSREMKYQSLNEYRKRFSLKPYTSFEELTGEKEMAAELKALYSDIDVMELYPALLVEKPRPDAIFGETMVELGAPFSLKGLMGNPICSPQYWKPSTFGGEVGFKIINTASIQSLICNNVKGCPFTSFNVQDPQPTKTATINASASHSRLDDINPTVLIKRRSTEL
In words: Evaluation of COX-2 activity: PGE2 formation in aspirin-treated, LPS-stimulated mouse peritoneal macrophages. It is filed as cell-based. In outline: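 C57BL/6 peritoneal macrophages treated with 500 μM aspirin to block COX-1, adhered, then stimulated with 10 μg/ml LPS for 16 h at 37 °C to induce COX-2.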

The next series concerns ICR mice. In words: Acetic acid-induced writhing test. It is filed as in vivo, mouse. The note with it: oral gavage. As to the method: ICR mice weighing 18˜22 g were maintained in a controlled lighting environment (12 hours on/12 hours off) and fasted overnight prior analgesic testing. Mice were administered with a compound of this invention dissolved in 10:10:80 ethanol/Tween 80/saline or vehicle only by oral gavage. The administered vehicle volume was controlled to be 10 ml/kg body weight. One hour later, the animals were treated with 0.2 ml of 1.2% acetic acid by peritoneal injection. 6 minutes later, the number of abdominal constrictions was counted for a 6 minutes period. The antinociceptive activity was expressed as the reduction in the number of abdominal constrictions, compared with that of the placebo group [J. Med. Chem. 39, 4942 (1996)]. ED50 of the mouse writhing test denotes a dose level at which the number of abdominal constrictions is half that of the placebo group. Ten animals per group were used for this study.
Background: In writhing tests, fewer writhes than in controls are read as antinociception.

In a further series the test system is male SD rats. In words: Carrageenan-induced thermal hyperalgesia assay. Type of series: in vivo, rat. The note with it: 3 hours. The procedure: Male SD rats weighing 170˜220 g were fasted but with free access to water for at leat 16 hours prior to testing. The rats were administered with a compound of this invention suspended in 20 ml 0.5% methylcellulose/0.025% Tween-20, or with vehicle only. Then the rats were given […] of 1% carrageenan in saline or […] saline only into the plantar surface of the left hindpaw by injection. Three hours later, the nociceptive responses to thermal stimuli were assessed as follows: Rats, which were placed in a transparent plastic chamber with a glass floor, were allowed to acclimate to their environment for 10 minutes prior to the testing. The withdrawal latency period in seconds was determined for the control and the compound treated group, and a percent inhibition in the withdrawal latency was calculated to estimate the analgesic effect of the compound [Pain 32, 77 (1988)]. In this study 6 animals were used for each group.

As usually defined, the melting point is the temperature of the solid-liquid transition. `CC1(C)OC(c2ccc(S(C)(=O)=O)cc2)=C(c2cc(F)cc(F)c2)C1=O` [Example 11, 4-(3,5-Difluorophenyl)-2,2-dimethyl-5-{4-(methylsulfonyl)phenyl}-3(2H)-furanone] gave a melting point of 141 to 142 °C. Also, on COX-2, the “IC50, μg/ml COX-2” value worked out at 0.05 µg/mL (≈ 0.132 µM).

As a reminder, the % Inhibition is the percentage by which the read-out fell short of the control. Higher therefore signals strong suppression. Turning to `CC1(C)OC(c2ccc(S(N)(=O)=O)cc2)=C(c2cccc(F)c2)C1=O` [Example 129, 5-{4-(aminosulfonyl)phenyl}-2,2-dimethyl-4-(3-fluorophenyl)-3(2H)-furanone], the “IC50, μg/ml COX-2” value at COX-2 stood at 0.0067 µg/mL (≈ 0.0185 µM). Further, the “ED50 (mouse writhing)” value in the series with ICR mice was found to be 12.3 mg/kg body weight. Further, in the series with male SD rats, the “% Inhibition at 1.0 mg/kg body weight (rat hyperalgesia)” value came out at 92%.

With `CC1(C)OC(c2ccc(S(C)(=O)=O)cc2)=C(c2cccc(F)c2)C1=O` [Example 4, 2,2-Dimethyl-4-(3-fluorophenyl)-5-{4-(methylsulfonyl)phenyl}-3(2H)-furanone], the melting point was 178 to 179 °C. Moreover, on COX-2, the “IC50, μg/ml COX-2” value was determined as 0.02 µg/mL (≈ 0.0555 µM). For the same molecule, the “ED50 (mouse writhing)” value in the series with ICR mice is 8.3 mg/kg body weight. Further, the “% Inhibition at 1.0 mg/kg body weight (rat hyperalgesia)” value in the series on male SD rats was 27%.

The molecule `CC1(C)OC(c2ccc(S(N)(=O)=O)cc2F)=C(c2ccc(F)cc2)C1=O` [Example 334] returned a melting point of 95 to 97 °C. The “IC50, μg/ml COX-2” value against COX-2 stood at 0.03 µg/mL (≈ 0.0791 µM).

`CC1(C)OC(c2ccc(S(N)(=O)=O)cc2)=C(c2cccc(Cl)c2)C1=O` [Example 126] yielded a melting point of 194 to 195 °C. In addition, the “IC50, μg/ml COX-2” value on COX-2 was 0.014 µg/mL (≈ 0.0371 µM).
